Source: patent US20230000891A1, “HYBRID AMPHOTERICIN B DERIVATIVES WITH REDUCED TOXICITY” (The Board of Trustees of the University of Illinois, priority 2019, published 2023)
In brackets after ≈: the same amount, converted by molar mass. Like-named read-outs stand apart in the source and are kept apart here. Each block holds one compound with its values, some of them ahead of it.

How the values were obtained:
C. krusei = assay: Minimum Inhibition Concentration (MIC), antifungal activity; type: cell-based
A. fumigatus 91 = assay: as above; type: cell-based
C. albicans [1] = assay: MIC with and without pre-complexation with ergosterol; type: cell-based; conditions: sponge pre-complexed with ergosterol
Excerpt: Anderson, T. M. et al., Nat Chem Biol 2014, 10 (5), 400-6. […] Davis, S. A., et al., Nat Chem Biol 2015, 11 (7), 481-7. To test whether C2′epiAmB primarily kills cells via the same sterol sponge mechanism, the C2′epiAmB sponge was similarly pre-complexed with ergosterol (FIG. 9). […] Thus, C2′epiAmB similarly kills yeast primarily via sterol binding, and, by extension, the new compounds targeted in this application are expected to have a similar barrier to fungal resistance that has been observed for the past 50+ years with AmB.

C. albicans [2] = assay: Minimum Inhibition Concentration (MIC), antifungal activity; type: cell-based
A. fumigatus 1100 = assay: as above; type: cell-based
C. glabrata = assay: as above; type: cell-based
C. tropicalis = assay: as above; type: cell-based
A. fumigatus 1163 = assay: as above; type: cell-based
[3] = test system: 40 Aspergillus clinical isolates, including azole-resistant A. fumigatus, A. flavus, and A. terreus; assay: Antifungal testing, extended panel of 40 Aspergillus clinical isolates (Fungus Testing Laboratory, UT-San Antonio); type: cell-based
Excerpt: (§1) In vitro antifungal activity of C2′epiAmB was compared with that of AmB against an extensive series of Candida and Aspergillus clinical isolates (FIG. 8A) at Evotec (Oxfordshire, UK). […] C2′epiAmB was also sent to the US national Fungus Testing Laboratory at UT-San Antonio for antifungal testing against an extended panel of especially challenging 40 Aspergillus clinical isolates, including azole-resistant A. fumigatus, A. flavus, and A. terreus (FIG. 8B). […] Recently, Steinbach and Burke directly compared the activity of AmB, AmBisome*, caspofungin, voriconazole, and C2′epiAmB against an even broader panel of clinically relevant invasive molds (FIG. 8C).

primary hREC = assay: Toxicity to primary human renal epithelial cells; type: cell-based
[4] = test system: clinically relevant invasive molds; assay: Antifungal activity, broader panel of clinically relevant invasive molds; type: cell-based; conditions: many strains, including a pan-azole resistant strain (F14196)
Excerpt: as §1

A. fumigatus = assay: In vitro antifungal activity, A. fumigatus strains (Evotec); type: cell-based
Excerpt: as §1

[5] = Intravenous toxicity in rats (BUN, ALT/AST, mortality); type: in vivo; conditions: IV, 2, 10, and 17.5 mg/kg (highest dose tested)
Protocol: >100 mg of C2′epiAmB was prepared, formulated it as the corresponding deoxycholate complex, and evaluated this derivative head-to-head with AmB-deoxycholate for toxicity and efficacy in animal models. […] Alternatively, no elevations in BUN or ALT/AST and no mortality when rats were treated with IV injections of C2′epiAmB at doses of 2, 10, and 17.5 mg/kg (the highest dose that was tested) was observed.

[6] = Cmax after IV administration; type: in vivo, rats; conditions: C2′epiAmB at 17.5 mg/kg vs AmB at 1 mg/kg
[7] = Isothermal titration calorimetry (ITC) sterol binding; conditions: within the detection limits of ITC
Excerpt: This key discovery opened a path to the rational development of a non-toxic AmB variant. To probe its predicted role in sterol binding, the hydroxyl group was synthetically deleted at the C2′ position on the mycosamine appendage. […] Consistent with the sterol sponge model, this derivative retained good activity against yeast but, most importantly, was nontoxic to human red blood cells and primary (hREC) (FIG. 2B).
A practical 11-step synthesis of C2′epiAmB using a frontier site-selective acylation method was developed (FIG. 4). Wilcock, B. C. et al., Nat Chem 2012, 4 (12), 996-1003; Uno, B. E. A synthesis enabled understanding of Amphotericin B leading to derivatives with improved therapeutic indices. University of Illinois at Urbana-Champaign, 2014. The sterol binding and cell killing activities was then determined.

C. albicans [8] = assay: Murine model of invasive candidiasis; type: in vivo, Neutropenic ICR/Swiss mice; conditions: single IP injection
Excerpt: Andes, D. et al., Antimicrobial agents and chemotherapy 2001, 45 (3), 922-6. In fact, the PD parameter that best correlates with outcome is Cmax−/MIC. The same was subsequently observed in a pulmonary model of invasive aspergillosis. Wiederhold, N. P. et al., Antimicrobial agents and chemotherapy 2006, 50 (2), 469-73.

yeast = assay: Activity against yeast / fungal cell killing; type: cell-based
[9] = test system: Candida and Aspergillus clinical isolates; assay: In vitro antifungal activity, clinical isolates (Evotec); type: cell-based; conditions: many Candida and several Aspergillus strains
Excerpt: as §1

human red blood cells = assay: Toxicity to human red blood cells; type: cell-based

MIC (C. krusei; Pichia kudriavzevii): 2 µM (≈ 1.85 µg/mL)
MIC (A. fumigatus 91; Aspergillus fumigatus): 2 µM (≈ 1.85 µg/mL)
MIC (C. albicans [2]; Candida albicans): 0.5 µM (≈ 0.462 µg/mL)
MIC (A. fumigatus 1100; Aspergillus fumigatus): 2 µM (≈ 1.85 µg/mL)
MIC (C. glabrata; Nakaseomyces glabratus): 0.5 µM (≈ 0.462 µg/mL)
MIC (C. tropicalis; Candida tropicalis): 2 µM (≈ 1.85 µg/mL)
MIC (A. fumigatus 1163; Aspergillus fumigatus): 2 µM (≈ 1.85 µg/mL)
Compound: C[C@@H]1[C@H](O)[C@@H](C)/C=C/C=C/C=C/C=C/C=C/C=C/C=C/[C@H](OC2O[C@H](C)[C@@H](O)[C@H](N)[C@@H]2O)CC2O[C@](O)(CC(O)CC(O)[C@H](O)CCC(O)CC(O)CC(=O)O[C@H]1C)CC(O)[C@H]2C(=O)O (stereo partly shown) [AmB, Amphotericin B]
change in potency upon ergosterol pre-complexation (C. albicans [1]): same reduction in potency

Compound: COC(=O)[C@H]1[C@@H]2C[C@@H](O[C@@H]3O[C@H](C)[C@@H](O)[C@H](N)[C@H]3O)/C=C/C=C/C=C/C=C/C=C/C=C/C=C/[C@H](C)[C@@H](O)[C@@H](C)[C@H](C)OC(=O)C[C@H](O)C[C@H](O)CC[C@@H](O)[C@H](O)C[C@H](O)C[C@](O)(C[C@@H]1O)O2 [C2'epiAmBME]
MIC (C. krusei): 2 µM (≈ 1.88 µg/mL)
MIC (A. fumigatus 91): 4 µM (≈ 3.75 µg/mL)
MIC (C. albicans [2]): 1 µM (≈ 0.938 µg/mL)
MIC (A. fumigatus 1100): 4 µM (≈ 3.75 µg/mL)
MIC (C. glabrata): 4 µM (≈ 3.75 µg/mL)
MIC (C. tropicalis): 2 µM (≈ 1.88 µg/mL)
MIC (A. fumigatus 1163): 4 µM (≈ 3.75 µg/mL)

Compound: C[C@@H]1[C@H](O)[C@@H](C)/C=C/C=C/C=C/C=C/C=C/C=C/C=C/[C@H](O[C@@H]2O[C@H](C)[C@@H](O)[C@H](N)[C@H]2O)C[C@@H]2O[C@](O)(C[C@@H](O)C[C@@H](O)[C@H](O)CC[C@@H](O)C[C@@H](O)CC(=O)O[C@H]1C)C[C@H](O)[C@H]2C(=O)O [C2′epiAmB]
average potency relative to AmB (less potent) ([3]; average across all 40 strains): 5.6 fold
potency relative to AmB (less potent) ([3]; range over 40 Aspergillus clinical isolates): 2-16 times
MIC (C. krusei): 4 µM (≈ 3.7 µg/mL)
toxicity to primary hREC (primary hREC): non-toxic
antifungal potency [4]: good antifungal potency
MIC (A. fumigatus 91): >64 µM
potency relative to AmB (less potent) (A. fumigatus; A. fumigatus strain AF91): > 32 times
potency relative to AmB (less potent) (A. fumigatus; A. fumigatus strains AF293, A1163, and ATC204305): 4 fold
ALT/AST [5]: no elevations
Blood Urea Nitrogen (BUN) [5]: no elevations
mortality [5]: no mortality
change in potency upon ergosterol pre-complexation (C. albicans [1]): same reduction in potency
Cmax relative to Cmax for AmB at 1 mg/kg [6]: > 16 fold
cholesterol binding by ITC [7]: not (detectably) cholesterol
ergosterol binding by ITC [7]: bind ergosterol
fungal burden (C. albicans [8]; 16 mg/kg dose): outstanding reductions in fungal burden
efficacy (C. albicans [8]; deoxycholate complex, 1, 4, 8, or 16 mg/kg): dose-dependent efficacy
MIC (C. albicans [2]): 4 µM (≈ 3.7 µg/mL)
activity against yeast / fungal cells (yeast): kill fungal
MIC (A. fumigatus 1100): 32 µM (≈ 29.6 µg/mL)
in vitro antifungal activity [9]: good activity
MIC (C. glabrata): 8 µM (≈ 7.39 µg/mL)
MIC (C. tropicalis): 4 µM (≈ 3.7 µg/mL)
MIC (A. fumigatus 1163): >64 µM
toxicity to human red blood cells (human red blood cells): non-toxic
